Experimental data from ChEMBL document CHEMBL6115031, “Structure-Based Optimization of Moracin M as Potent and Selective PDE4 Inhibitors with Antipsoriasis Effects” (J Med Chem, 2025).
The source made the active and inactive calls.

Columns and labels:
HaCaT [1] = assay: Anti-psoriasis activity in M5-stimulated human HaCaT cells assessed as restoration of cAMP level at 20 uM incubated for 2 hrs by competitive ELISA; format: functional, cell-based
Mus musculus [2] = assay: Anti-psoriasis effect in IMQ-induced female BALB/c mouse assessed as change in size of spleen at 20 mg/kg administered topically as 0.3 % ointment pretreated with IMQ for 6 hrs followed by compound addition once daily for 7 days by H and E staining based analysis; format: functional, organism-based; details: time 7.0 day
HaCaT [3] = assay: Cytotoxicity against human HaCaT cells assessed as reduction in cell viability at 5 to 80 uM incubated for 24 hrs by CCK-8 assay; format: toxicity, cell-based; details: dose 5-80 µM
Mus musculus [4] = assay: Anti-psoriasis effect in female BALB/c mouse model assessed as reduction in K6 protein expression at 20 mg/kg administered topically as 0.3 % ointment pretreated with IMQ for 6 hrs followed by compound addition once daily for 7 days by Western blotting analysis; format: functional, organism-based; details: time 7.0 day
Mus musculus [5] = assay: Anti-inflammatory activity in IMQ-induced psoriasis in female BALB/c mouse assessed as reduction in IL-6 mRNA level at 20 mg/kg administered topically as 0.3 % ointment pretreated with IMQ for 6 hrs followed by compound addition once daily for 7 days by q-PCR analysis; format: functional, organism-based; details: time 7.0 day
HaCaT [6] = assay: Anti-psoriasis effect in M5-stimulated human HaCaT cells assessed as decrease in K17 protein expression at 20 uM pretreated with M5 followed by compound addition and measured after 24 hrs by Western blotting analysis; format: functional, cell-based
RAW264.7 [7] = assay: Anti-inflammatory activity in LPS-stimulated mouse RAW264.7 cells assessed as reduction in IL-6 mRNA level pretreated with compound for 2 hrs followed by LPS stimulation and measured after 6 hrs by q-PCR analysis; format: functional, cell-based; details: dose 5-20 µM, time 8.0 hrs
Mus musculus [8] = assay: Anti-psoriasis effect in IMQ-induced female BALB/c mouse model assessed as reduction in abnormal rete ridges at 20 mg/kg administered topically as 0.3 % ointment pretreated with IMQ for 6 hrs followed by compound addition once daily for 7 days by H and E staining based analysis; format: functional, organism-based; details: time 7.0 day
[9] = Drug absorption in rat skin assessed as skin permeability by measuring steady-state transdermal flux administered topically as 0.3% ointment at 100 mg by HPLC analysis; format: ADME, tissue-based, Skin of body; details: in vivo, topical_or_ocular
HaCaT [10] = assay: Anti-psoriasis effect in M5-stimulated human HaCaT cells assessed as decrease in K6 protein expression at 20 uM pretreated with M5 followed by compound addition and measured after 24 hrs by Western blotting analysis; format: functional, cell-based
Mus musculus [11] = assay: Anti-psoriasis effect in female BALB/c mouse model assessed as reduction in K17 protein expression at 20 mg/kg administered topically as 0.3 % ointment pretreated with IMQ for 6 hrs followed by compound addition once daily for 7 days by Western blotting analysis; format: functional, organism-based; details: time 7.0 day
RAW264.7 [12] = assay: Anti-inflammatory activity in LPS-stimulated mouse RAW264.7 cells assessed as reduction in IL-1beta mRNA level pretreated with compound for 2 hrs followed by LPS stimulation and measured after 6 hrs by q-PCR analysis; format: functional, cell-based; details: dose 5-20 µM, time 8.0 hrs
RAW264.7 [13] = assay: Anti-inflammatory activity in LPS-stimulated mouse RAW264.7 cells assessed as reduction in TNF-alpha mRNA level pretreated with compound for 2 hrs followed by LPS stimulation and measured after 6 hrs by q-PCR analysis; format: functional, cell-based; details: dose 5-20 µM, time 8.0 hrs
[14] = molecular target: 3',5'-cyclic-AMP phosphodiesterase 4D (Homo sapiens, UniProt Q08499); assay: Inhibition of human PDE4D2 (86 to 413 residues) extracted from Escherichia coli BL21 cells using 3H-cAMP/3H-cGMP as substrate preincubated with compound for 15 mins followed by substrate addition by liquid scintillation counter
Mus musculus [15] = assay: Anti-psoriasis effect in IMQ-induced female BALB/c mouse assessed as decrease in skin thickness at 20 mg/kg administered topically as 0.3 % ointment pretreated with IMQ for 6 hrs followed by compound addition once daily for 7 days; format: functional, organism-based; details: time 7.0 day
Mus musculus [16] = assay: Anti-inflammatory activity in IMQ-induced psoriasis in female BALB/c mouse assessed as reduction in TNF-alpha mRNA level at 20 mg/kg administered topically as 0.3 % ointment pretreated with IMQ for 6 hrs followed by compound addition once daily for 7 days by q-PCR analysis; format: functional, organism-based; details: time 7.0 day
Mus musculus [17] = assay: Anti-psoriasis effect in female BALB/c mouse model assessed as increase in K10 protein expression at 20 mg/kg administered topically as 0.3 % ointment pretreated with IMQ for 6 hrs followed by compound addition once daily for 7 days by Western blotting analysis; format: functional, organism-based; details: time 7.0 day
HaCaT [18] = assay: Anti-inflammatory activity in M5- stimulated human HaCaT cells assessed as reduction in CXCL-2 mRNA level incubated for 24 hrs by q-PCR analysis; format: functional, cell-based; details: dose 5-20 µM
Mus musculus [19] = assay: Anti-psoriasis effect in IMQ-induced female BALB/c mouse model assessed as reduced bleeding in dermal papilla layers at 20 mg/kg administered topically as 0.3 % ointment pretreated with IMQ for 6 hrs followed by compound addition once daily for 7 days by H and E staining based analysis; format: functional, organism-based; details: time 7.0 day
[20] = molecular target: cAMP and cAMP-inhibited cGMP 3',5'-cyclic phosphodiesterase 10A (Homo sapiens, UniProt Q9Y233); assay: Inhibition of PDE10A2 (449 to 770 residues) (unknown origin) extracted from Escherichia coli BL21 cells using 3H-cAMP/3H-cGMP as substrate preincubated with compound for 15 mins followed by substrate addition by liquid scintillation counter
Mus musculus [21] = assay: Anti-psoriasis effect in female BALB/c mouse model assessed as increase in K1 protein expression at 20 mg/kg administered topically as 0.3 % ointment pretreated with IMQ for 6 hrs followed by compound addition once daily for 7 days by Western blotting analysis; format: functional, organism-based; details: time 7.0 day
Mus musculus [22] = assay: Anti-psoriasis effect in IMQ-induced female BALB/c mouse assessed as reduction in psoriasis severity index score at 20 mg/kg administered topically as 0.3 % ointment pretreated with IMQ for 6 hrs followed by compound addition once daily for 7 days; format: functional, organism-based; details: time 7.0 day
[23] = molecular target: 3',5'-cyclic-AMP phosphodiesterase 4C (Homo sapiens, UniProt Q08493); assay: Inhibition of PDE4C1 (314 to 639 residues) (unknown origin) extracted from Escherichia coli BL21 cells using 3H-cAMP/3H-cGMP as substrate preincubated with compound for 15 mins followed by substrate addition by liquid scintillation counter
[24] = Drug absorption in rat skin assessed as skin permeability by measuring cumulative transdermal amount per unit area administered topically as 0.3% ointment at 100 mg by HPLC analysis; format: ADME, tissue-based, Skin of body; details: in vivo, topical_or_ocular
Mus musculus [25] = assay: Anti-psoriasis effect in IMQ-induced female BALB/c mouse model assessed as reduction in spinous layer thickness at 20 mg/kg administered topically as 0.3 % ointment pretreated with IMQ for 6 hrs followed by compound addition once daily for 7 days by H and E staining based analysis; format: functional, organism-based; details: time 7.0 day
Mus musculus [26] = assay: Anti-inflammatory activity in IMQ-induced psoriasis in female BALB/c mouse assessed as reduction in IL-17 mRNA level at 20 mg/kg administered topically as 0.3 % ointment pretreated with IMQ for 6 hrs followed by compound addition once daily for 7 days by q-PCR analysis; format: functional, organism-based; details: time 7.0 day
Mus musculus [27] = assay: Anti-inflammatory activity in IMQ-induced psoriasis in female BALB/c mouse assessed as reduction in IL-1beta mRNA level at 20 mg/kg administered topically as 0.3 % ointment pretreated with IMQ for 6 hrs followed by compound addition once daily for 7 days by q-PCR analysis; format: functional, organism-based; details: time 7.0 day

Sequence of 3',5'-cyclic-AMP phosphodiesterase 4C (Q08493 whole entry, the tested form may be a part): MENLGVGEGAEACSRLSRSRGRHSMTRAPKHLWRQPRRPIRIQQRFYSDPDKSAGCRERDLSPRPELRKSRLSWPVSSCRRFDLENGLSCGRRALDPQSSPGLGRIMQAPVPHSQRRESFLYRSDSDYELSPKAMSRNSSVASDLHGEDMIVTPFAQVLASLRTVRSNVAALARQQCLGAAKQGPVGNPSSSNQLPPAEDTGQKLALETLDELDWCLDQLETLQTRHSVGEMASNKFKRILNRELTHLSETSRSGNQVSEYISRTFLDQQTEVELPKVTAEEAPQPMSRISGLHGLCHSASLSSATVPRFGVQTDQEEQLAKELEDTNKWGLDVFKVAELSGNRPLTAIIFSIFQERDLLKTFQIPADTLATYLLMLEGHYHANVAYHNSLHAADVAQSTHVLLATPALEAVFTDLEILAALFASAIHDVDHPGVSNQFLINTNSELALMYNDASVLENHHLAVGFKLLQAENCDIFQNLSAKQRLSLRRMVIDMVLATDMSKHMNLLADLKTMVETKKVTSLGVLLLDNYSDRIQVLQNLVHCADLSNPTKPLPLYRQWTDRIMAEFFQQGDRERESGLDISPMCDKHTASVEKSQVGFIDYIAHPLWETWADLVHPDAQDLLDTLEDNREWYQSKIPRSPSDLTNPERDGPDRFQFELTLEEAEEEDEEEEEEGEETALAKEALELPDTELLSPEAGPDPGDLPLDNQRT
Sequence of cAMP and cAMP-inhibited cGMP 3',5'-cyclic phosphodiesterase 10A (Q9Y233 whole entry, the tested form may be a part): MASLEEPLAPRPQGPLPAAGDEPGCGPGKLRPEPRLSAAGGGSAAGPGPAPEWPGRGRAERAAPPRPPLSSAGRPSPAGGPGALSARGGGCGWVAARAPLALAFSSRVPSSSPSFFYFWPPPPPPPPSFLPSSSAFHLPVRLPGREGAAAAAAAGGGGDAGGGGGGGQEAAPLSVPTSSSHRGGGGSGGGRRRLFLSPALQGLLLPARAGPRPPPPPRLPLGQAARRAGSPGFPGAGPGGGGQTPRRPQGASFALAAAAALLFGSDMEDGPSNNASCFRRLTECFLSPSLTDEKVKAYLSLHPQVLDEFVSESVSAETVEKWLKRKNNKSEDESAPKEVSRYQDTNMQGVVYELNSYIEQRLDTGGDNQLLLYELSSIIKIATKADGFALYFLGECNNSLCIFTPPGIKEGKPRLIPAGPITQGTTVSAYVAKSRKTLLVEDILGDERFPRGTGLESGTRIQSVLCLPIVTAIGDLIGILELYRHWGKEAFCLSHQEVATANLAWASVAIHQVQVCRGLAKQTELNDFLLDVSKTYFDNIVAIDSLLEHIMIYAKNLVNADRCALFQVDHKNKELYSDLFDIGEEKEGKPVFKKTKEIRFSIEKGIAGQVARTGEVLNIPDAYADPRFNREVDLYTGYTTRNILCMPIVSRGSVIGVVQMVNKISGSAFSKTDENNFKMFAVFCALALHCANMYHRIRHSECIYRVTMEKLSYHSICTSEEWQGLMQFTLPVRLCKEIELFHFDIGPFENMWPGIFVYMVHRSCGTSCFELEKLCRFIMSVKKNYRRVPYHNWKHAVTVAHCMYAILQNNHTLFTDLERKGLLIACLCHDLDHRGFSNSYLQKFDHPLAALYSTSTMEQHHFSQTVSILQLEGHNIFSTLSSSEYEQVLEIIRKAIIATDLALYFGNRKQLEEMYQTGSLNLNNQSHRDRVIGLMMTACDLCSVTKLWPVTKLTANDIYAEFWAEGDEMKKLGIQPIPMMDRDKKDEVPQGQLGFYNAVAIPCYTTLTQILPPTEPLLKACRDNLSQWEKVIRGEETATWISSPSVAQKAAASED
Sequence of 3',5'-cyclic-AMP phosphodiesterase 4D (Q08499 whole entry, the tested form may be a part): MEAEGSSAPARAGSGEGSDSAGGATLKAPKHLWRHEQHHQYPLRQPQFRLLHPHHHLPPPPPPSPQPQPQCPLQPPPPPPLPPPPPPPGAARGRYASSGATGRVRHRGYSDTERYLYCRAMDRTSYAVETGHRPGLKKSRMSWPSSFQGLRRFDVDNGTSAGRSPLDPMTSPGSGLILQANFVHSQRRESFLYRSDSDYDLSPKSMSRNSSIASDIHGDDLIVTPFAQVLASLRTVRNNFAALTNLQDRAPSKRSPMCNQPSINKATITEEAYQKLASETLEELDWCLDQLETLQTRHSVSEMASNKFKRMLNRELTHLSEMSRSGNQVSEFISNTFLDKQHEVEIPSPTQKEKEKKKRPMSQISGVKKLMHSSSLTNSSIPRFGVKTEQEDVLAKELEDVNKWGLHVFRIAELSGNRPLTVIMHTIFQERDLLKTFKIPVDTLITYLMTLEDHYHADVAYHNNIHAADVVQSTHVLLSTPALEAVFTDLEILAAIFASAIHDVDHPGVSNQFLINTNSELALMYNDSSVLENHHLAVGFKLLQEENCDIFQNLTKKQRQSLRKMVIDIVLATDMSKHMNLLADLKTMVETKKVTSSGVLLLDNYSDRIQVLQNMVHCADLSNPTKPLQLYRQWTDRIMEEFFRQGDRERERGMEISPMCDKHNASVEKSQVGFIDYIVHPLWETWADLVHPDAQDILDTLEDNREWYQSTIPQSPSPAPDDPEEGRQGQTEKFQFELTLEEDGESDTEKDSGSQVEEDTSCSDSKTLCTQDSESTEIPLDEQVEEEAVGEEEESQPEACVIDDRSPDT

COC(=O)[C@H]1C[C@@H](Oc2c(O)ccc3cc(-c4ccc(OC(F)F)c(OCC5CC5)c4)oc23)CN1
1950 nM: IC50 [20]
active: Activity (HaCaT [1]) | Activity (Mus musculus [2]) | Activity (Mus musculus [4]) | Activity (Mus musculus [5]) | Activity (HaCaT [6]) | Activity (RAW264.7 [7]) Dose-dependent-effect | Activity (Mus musculus [8]) | Activity (HaCaT [10]) | Activity (Mus musculus [11]) | Activity (RAW264.7 [12]) Dose-dependent-effect | Activity (RAW264.7 [13]) Dose-dependent-effect | Activity (Mus musculus [15]) | Activity (Mus musculus [16]) | Activity (Mus musculus [17]) | Activity (HaCaT [18]) Dose-dependent-effect | Activity (Mus musculus [19]) | Activity (Mus musculus [21]) | Activity (Mus musculus [22]) | Activity (Mus musculus [25]) | Activity (Mus musculus [26]) | Activity (Mus musculus [27])
0.43 ug/cm2.hr: Jss [9]
Non-toxic: Activity (HaCaT [3])
747 nM: IC50 [23]
15.78 microg/cm2: Drug absorption [24]
8.6 nM: IC50 [14]
